The values below come from US11629171B2, “Beta-hairpin peptidomimetics” (POLYPHOR AG, priority 2017, dated 2023).

Converted amounts (≈) assume the structure as drawn. Where a SMILES comes first, the peptide text is derived from it. Bridges are numbered along the chain shown (N, C = ends). Roman numbers before positions name the chains, in order. [ ]: non-standard residue; d: D form. The star is where a group is joined. Tyrosinol = OC[C@H](Cc1ccc(O)cc1)N*; Tle = CC(C)(C)[C@H](N)C(=O)O; d(hSer) = N[C@H](CCO)C(=O)O; Hiv = CC(C)[C@H](O)C(=O)O; dDab = NCC[C@@H](N)C(=O)O; hSer = N[C@@H](CCO)C(=O)O; Dab = NCC[C@H](N)C(=O)O; Abu = CC[C@H](N)C(=O)O; Dap = NC[C@H](N)C(=O)O Where only a bound is given, the exact number is not on record here.

Data set [1] has as its system Acinetobacter baumannii 872842. Format: cell-based. The conditions noted are these: 872842. A digest of the protocol: (§1)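 Standard CLSI microdilution testing: bacterial suspensions standardized against 0.5 McFarland to about 10^6 CFU/mL in MH-II broth meet serially halved peptide concentrations in broth containing 0.002% polysorbate 80; incubation lasts 18-20 h at 35° C before the MIC is scored.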

In data set [2] the test system is Acinetobacter baumannii DSM 30008. The data set is classed as cell-based. The conditions noted are these: DSM 30008. A digest of the protocol: as §1
The test system of data set [3] is Enterobacter cloacae 848840. Format: cell-based. The conditions noted are these: 848840. A digest of the protocol:
as §1

A further data set concerns Escherichia coli 926415. The data set is classed as cell-based. Conditions: 926415. A digest of the protocol: as §1
Data set [4] deals with Escherichia coli ATCC 25922. Format: cell-based. Conditions: ATCC 25922. A digest of the protocol: as §1
Data set [5] relates to Klebsiella pneumoniae 968733. Format: cell-based. Conditions: 968733. A digest of the protocol:
as §1

For data set [6], the system named is Klebsiella pneumoniae SSI #3010. The data set is classed as cell-based. The conditions noted are these: SSI #3010. A digest of the protocol:
as §1

The test system of data set [7] is Pseudomonas aeruginosa ATCC 27853. The data set is classed as cell-based. Conditions: ATCC 27853. A digest of the protocol: as §1
Data set [8] deals with human red blood cells (hRBC). Kind of data set: Hemolysis. Format: cell-based. Conditions: red cells of human, 1 h, 200. A digest of the protocol: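 Washed fresh human RBC (20% v/v) incubated with peptide at 200 μg/mL for 1 h at 37° C with shaking. Supernatant OD540 measured after dilution, blank corrected; percent hemolysis = OD540 peptide / OD540 of 2% Triton X-100 lysis × 100, PBS with 10% water as 0%.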

Another data set deals with male ICR mice. Kind of data set: Tolerability in a mouse model (Maximum Tolerated Dose assay). Format: in vivo. Conditions: groups of 3. A digest of the protocol: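 Peptides in 0.9% NaCl (pH 6.5-7.6) given s.c. at 30 or 40 mg/kg, twice 12 h apart, to groups of 3 male ICR mice (23±3 g). Acute toxic signs (mortality, convulsions, tremors, sedation) and autonomic effects (diarrhea, salivation, piloerection) observed for 30 min after each dose.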

As for `CC(C)C[C@@H]1NC(=O)[C@@H](CC(C)C)NC(=O)[C@H](CCN)NC(=O)[C@@H](NC(=O)[C@H](CCN)NC(=O)[C@@H](NC(=O)[C@H](CCN)NC(=O)CC[C@@H]2NC(=O)[C@H](CCN)NC(=O)[C@H](C(C)C)NC(=O)[C@@H](NC(=O)[C@@H](O)C(C)C)CSSC[C@@H](C(=O)N[C@H](CO)Cc3ccc(O)cc3)NC(=O)[C@H](C(C)(C)C)NC(=O)[C@H](CO)NC(=O)[C@H](Cc3c[nH]c4ccccc34)NC(=O)[C@H](CCO)NC(=O)[C@@H](CCN)NC2=O)[C@@H](C)O)CCNC(=O)[C@H]([C@@H](C)O)NC(=O)[C@H](CCN)NC(=O)[C@H](CCN)NC1=O` [Ex. 92] (I: H-[Hiv]CV[Dab]E[dDab][hSer]WS[Tle]C-Tyrosinol / II: [Dab]T[Dab][Dab][Dab][dL]L[Dab][Dab]T; disulfide I:2-I:11; amide I:5-II:N; lactam II:4-II:C), the MIC was determined as 0.125 µg/mL (≈ 0.0521 µM) in [1]; 0.125 µg/mL (≈ 0.0521 µM) in [2]; 0.25 µg/mL (≈ 0.104 µM) in data set [3]; 0.0625 µg/mL (≈ 0.0261 µM) against Escherichia coli 926415; 0.0625 µg/mL (≈ 0.0261 µM) in data set [4]; 0.125 µg/mL (≈ 0.0521 µM) in data set [5]. Moreover, the MIC in data set [6] amounted to 0.0625 µg/mL (≈ 0.0261 µM); in [7] it was 0.125 µg/mL (≈ 0.0521 µM). Also, the “Hemolysis at 200 μg/mL” value in data set [8] is listed as less than 1%. Moreover, the Mortality and dose in the data set with male ICR mice (2 × 30 mg/kg s.c. at a 12-hr interval) is 0/3 died at 2 × 30 mg/kg.
With `CC[C@@H]1NC(=O)[C@@H](CC(C)C)NC(=O)[C@H](CCN)NC(=O)[C@@H](NC(=O)[C@H](CN)NC(=O)[C@@H](NC(=O)[C@H](CCN)NC(=O)CC[C@@H]2NC(=O)CNC(=O)[C@H](Cc3ccc(O)cc3)NC(=O)[C@@H](NC(=O)[C@@H](NC(C)=O)C(C)C)CSSC[C@@H](C(=O)N[C@@H](CO)C(N)=O)NC(=O)[C@H](C(C)C)NC(=O)[C@H](CCN)NC(=O)[C@H](Cc3c[nH]c4ccccc34)NC(=O)[C@H](CCN)NC(=O)[C@@H](CCO)NC2=O)[C@@H](C)O)CCNC(=O)[C@H]([C@@H](C)O)NC(=O)[C@H](CCN)NC(=O)[C@H](CCN)NC1=O` [Ex. 298] (I: Ac-VCYGE[d(hSer)][Dab]W[Dab]VCS-NH2 / II: [Dab]T[Dap][Dab][Dab][dL][Abu][Dab][Dab]T; disulfide I:2-I:11; amide I:5-II:N; lactam II:4-II:C), the MIC worked out at 0.25 µg/mL (≈ 0.106 µM) in data set [1]; 0.0625 µg/mL (≈ 0.0265 µM) in data set [2]; 0.25 µg/mL (≈ 0.106 µM) in data set [3]; 0.5 µg/mL (≈ 0.212 µM) in the data set on Escherichia coli 926415; 0.03125 µg/mL (≈ 0.0133 µM) in data set [4]; 1 µg/mL (≈ 0.425 µM) in [5]. Moreover, the MIC is 0.0625 µg/mL (≈ 0.0265 µM) in [6] and 0.25 µg/mL (≈ 0.106 µM) in data set [7]. Further, the “Hemolysis at 200 μg/mL” value in data set [8] was less than 1%. Besides, in the data set on male ICR mice (2 × 40 mg/kg s.c. at a 12-hr interval), the Mortality and dose is 0/3 died at 2 × 40 mg/kg.

Usually MIC stands for the lowest concentration found to suppress growth. Lower therefore signals inhibition by little substance.
